According to patent publication US20240368159A1, “HPK1 DEGRADERS, COMPOSITIONS COMPRISING THE HPK1 DEGRADER, AND METHODS OF USING THE SAME” (BIOFRONT LTD, priority 2021, published 2024):

molecular target: T1, HPK1 protein (Homo sapiens, UniProt Q92918); experiment: HPK1 enzyme inhibition assay (ADP-Glo); assay type: biochemical; details: MBP substrate, ATP, ADP-Glo readout
T1 construct: purchased Signal Chem M23-11G-10
T1 sequence (Q92918 1-346 limits assumed): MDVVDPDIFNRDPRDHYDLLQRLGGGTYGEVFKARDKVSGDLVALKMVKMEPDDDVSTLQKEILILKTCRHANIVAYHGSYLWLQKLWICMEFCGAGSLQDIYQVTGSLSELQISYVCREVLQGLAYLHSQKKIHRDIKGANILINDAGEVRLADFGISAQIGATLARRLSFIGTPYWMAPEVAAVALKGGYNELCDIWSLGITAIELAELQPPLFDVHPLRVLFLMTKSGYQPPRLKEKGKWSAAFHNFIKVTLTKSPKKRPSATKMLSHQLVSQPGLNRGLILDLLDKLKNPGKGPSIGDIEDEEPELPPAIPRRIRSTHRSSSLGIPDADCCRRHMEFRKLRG
Protocol: The compound was dissolved in 100% DMSO at the concentration of 10 mM. The HPK1 protein was purchased from Signal Chem (M23-11G-10). 2.5 μL per well of 2×HPK1 protein was added to assay plate containing the test compound, centrifuged at 1500 rpm for 1 minute, and then incubated at 25° C. for 60 minutes. MBP protein was purchased from Signal Chem (M42-51N) and ATP was purchased from Promega (V9102). The two were added 2.5 μL per well mixture of 2×MBP (0.2 ug/ul) and ATP (20 μM), centrifuged at 1500 rpm for 1 minute, then incubated at 25° C. for 60 minutes. Then added 5 μL of ADP-Glo from Promega (V9102) to the assay plate and depleted the unconsumed ATP for 60 minutes. Then centrifuged at 1500 rpm for 1 minute and incubated at 25° C. for 60 minutes. Finally, 10 μL of the kinase assay reagent from Promega (V9102) was added to the assay plate to convert ADP to ATP, centrifuged at 1500 rpm for 1 minute, incubate at 25° C. for 40 minutes. After 40 minutes incubation, the […] was determined. Based on the results, the IC50 value of the compound was calculated.

| IC50 | SMILES |
| --- | --- |
| 10 to 100 nM | CCc1c[nH]c2ncc(-c3cccc(N4CCN(C(=O)CCCN(C)c5cccc6c5CN(C5CCC(=O)NC5=O)C6=O)CC4=O)c3)c(Cl)c12 (stereo not shown) [Example 15, 3-(4-((4-(4-(3-(4-chloro-3-ethyl-1H-pyrrolo[2,3-b]pyridin-5-yl)phenyl)-3-oxopiperazin-1-yl)-4-oxobutyl)(methyl)amino)-1-oxoisoindolin-2-yl)piperidine-2,6-dione] |
| 10 to 100 nM | CCc1c[nH]c2ncc(-c3cccc(N4CCN(C(=O)CCCCCOc5ccc6c(c5)C(=O)N(C5CCC(=O)NC5=O)C6)CC4=O)c3)c(Cl)c12 (stereo not shown) [Example 68, 3-(6-((6-(4-(3-(4-chloro-3-ethyl-1H-pyrrolo[2,3-b]pyridin-5-yl)phenyl)-3-oxopiperazin-1-yl)-6-oxohexyl)oxy)-1-oxoisoindolin-2-yl)piperidine-2,6-dione] |
| 10 to 100 nM | CCc1c[nH]c2ncc(-c3cccc(N4CCN(C(=O)CCOCCOCc5cn(-c6cccc7c6CN(C6CCC(=O)NC6=O)C7=O)nn5)CC4=O)c3)c(Cl)c12 (stereo not shown) [Example 13, 3-(4-(4-((2-(3-(4-(3-(4-chloro-3-ethyl-1H-pyrrolo[2,3-b]pyridin-5-yl)phenyl)-3-oxopiperazin-1-yl)-3-oxopropoxy)ethoxy)methyl)-1H-1,2,3-triazol-1-yl)-1-oxoisoindolin-2-yl)piperidine-2,6-dione] |
| 10 to 100 nM | CCc1c[nH]c2ncc(-c3cccc(N4CCN(C(=O)CCCCCCCOc5cccc6c5C(=O)N(C5CCC(=O)NC5=O)C6=O)CC4=O)c3)c(Cl)c12 (stereo not shown) [Example 9, 4-((8-(4-(3-(4-chloro-3-ethyl-1H-pyrrolo[2,3-b]pyridin-5-yl)phenyl)-3-oxopiperazin-1-yl)-8-oxooctyl)oxy)-2-(2,6-dioxopiperidin-3-yl)isoindoline-1,3-dione] |
| 10 to 100 nM | CCc1c[nH]c2ncc(-c3cccc(N4CCN(C(=O)CCCCCCOc5cccc6c5CN(C5CCC(=O)NC5=O)C6=O)CC4=O)c3)c(Cl)c12 (stereo not shown) [Example 6, 3-(4-((7-(4-(3-(4-chloro-3-ethyl-1H-pyrrolo[2,3-b]pyridin-5-yl)phenyl)-3-oxopiperazin-1-yl)-7-oxoheptyl)oxy)-1-oxoisoindolin-2-yl)piperidine-2,6-dione] |
| 10 to 100 nM | CCc1c[nH]c2ncc(-c3cccc(N4CCN(CCNc5ccc6c(c5)C(=O)N(C5CCC(=O)NC5=O)C6=O)CC4=O)c3)c(Cl)c12 (stereo not shown) [Example 60, 5-((2-(4-(3-(4-chloro-3-ethyl-1H-pyrrolo[2,3-b]pyridin-5-yl)phenyl)-3-oxopiperazin-1-yl)ethyl)amino)-2-(2,6-dioxopiperidin-3-yl)isoindoline-1,3-dione] |
| 10 to 100 nM | O=C1CCC(N2C(=O)c3ccc(CN4CCC(OC(=O)N5CCN(c6cccc(-c7cnc8[nH]cc(C9CC9)c8c7Cl)c6)C(=O)C5)CC4)cc3C2=O)C(=O)N1 (stereo not shown) [Example 94, 1-((2-(2,6-dioxopiperidin-3-yl)-1,3-dioxoisoindolin-5-yl)methyl)piperidin-4-yl 4-(3-(4-chloro-3-cyclopropyl-1H-pyrrolo[2,3-b]pyridin-5-yl)phenyl)-3-oxopiperazine-1-carboxylate] |
| 10 to 100 nM | CCc1c[nH]c2ncc(-c3cccc(N4CCN(C(=O)CCN5CCN(c6cccc7c6C(=O)N(C6CCC(=O)NC6=O)C7=O)CC5)CC4=O)c3)c(Cl)c12 (stereo not shown) [Example 20, 4-(4-(3-(4-(3-(4-chloro-3-ethyl-1H-pyrrolo[2,3-b]pyridin-5-yl)phenyl)-3-oxopiperazin-1-yl)-3-oxopropyl)piperazin-1-yl)-2-(2,6-dioxopiperidin-3-yl)isoindoline-1,3-dione] |
| 100 to 1000 nM | CCc1c[nH]c2ncc(-c3cccc(N4CCN(C(=O)CCCCCCCCCOc5cccc6c5CN(C5CCC(=O)NC5=O)C6=O)CC4=O)c3)c(Cl)c12 (stereo not shown) [Example 7, 3-(4-((10-(4-(3-(4-chloro-3-ethyl-1H-pyrrolo[2,3-b]pyridin-5-yl)phenyl)-3-oxopiperazin-1-yl)-10-oxodecyl)oxy)-1-oxoisoindolin-2-yl)piperidine-2,6-dione] |
| 10 to 100 nM | CCc1c[nH]c2ncc(-c3cccc(N4CCN(CC(=O)N5CCN(c6ccc7c(c6)C(=O)N(C6CCC(=O)NC6=O)C7=O)CC5)CC4=O)c3)c(Cl)c12 (stereo not shown) [Example 34, 5-(4-(2-(4-(3-(4-chloro-3-ethyl-1H-pyrrolo[2,3-b]pyridin-5-yl)phenyl)-3-oxopiperazin-1-yl)acetyl)piperazin-1-yl)-2-(2,6-dioxopiperidin-3-yl)isoindoline-1,3-dione] |
| > 1000 nM | CCc1c[nH]c2ncc(-c3cccc(N4CCN(CCNC(=O)C5CCN(c6ccc7c(c6)C(=O)N(C6CCC(=O)NC6=O)C7=O)CC5)CC4=O)c3)c(Cl)c12 (stereo not shown) [Example 37] |
| 100 to 1000 nM | CCc1c[nH]c2ncc(-c3cccc(N4CCN(C(=O)CCCCCCCNc5cccc6c5CN(C5CCC(=O)NC5=O)C6=O)CC4=O)c3)c(Cl)c12 (stereo not shown) [Example 10, 3-(4-((8-(4-(3-(4-chloro-3-ethyl-1H-pyrrolo[2,3-b]pyridin-5-yl)phenyl)-3-oxopiperazin-1-yl)-8-oxooctyl)amino)-1-oxoisoindolin-2-yl)piperidine-2,6-dione] |
| 10 to 100 nM | CCc1c[nH]c2ncc(-c3cccc(N4CCN(Cc5ccc6c(c5)C(=O)N(C5CCC(=O)NC5=O)C6=O)CC4=O)c3)c(Cl)c12 (stereo not shown) [Example 90, 5-((4-(3-(4-chloro-3-ethyl-1H-pyrrolo[2,3-b]pyridin-5-yl)phenyl)-3-oxopiperazin-1-yl)methyl)-2-(2,6-dioxopiperidin-3-yl)isoindoline-1,3-dione] |
| 100 to 1000 nM | CCc1c[nH]c2ncc(-c3cccc(N4CCN(C(=O)CCCCCCCN(C)c5cccc6c5CN(C5CCC(=O)NC5=O)C6=O)CC4=O)c3)c(Cl)c12 (stereo not shown) [Example 11, 3-(4-((8-(4-(3-(4-chloro-3-ethyl-1H-pyrrolo[2,3-b]pyridin-5-yl)phenyl)-3-oxopiperazin-1-yl)-8-oxooctyl)(methyl)amino)-1-oxoisoindolin-2-yl)piperidine-2,6-dione] |
| 10 to 100 nM | CCc1c[nH]c2ncc(-c3cccc(N4CCN(C(=O)CCCCCOc5cccc6c5CN(C5CCC(=O)NC5=O)C6=O)CC4=O)c3)c(Cl)c12 (stereo not shown) [Example 5, 3-(4-((6-(4-(3-(4-chloro-3-ethyl-1H-pyrrolo[2,3-b]pyridin-5-yl)phenyl)-3-oxopiperazin-1-yl)-6-oxohexyl)oxy)-1-oxoisoindolin-2-yl)piperidine-2,6-dione] |
| 10 to 100 nM | CCc1c[nH]c2ncc(-c3cccc(N4CCN(CC5CN(c6ccc7c(c6)C(=O)N(C6CCC(=O)NC6=O)C7=O)C5)CC4=O)c3)c(Cl)c12 (stereo not shown) [Example 89] |
| 10 to 100 nM | CCc1c[nH]c2ncc(-c3cccc(N4CCN(C(=O)COC5CN(c6cccc7c6C(=O)N(C6CCC(=O)NC6=O)C7=O)C5)CC4=O)c3)c(Cl)c12 (stereo not shown) [Example 18, 4-(3-(2-(4-(3-(4-chloro-3-ethyl-1H-pyrrolo[2,3-b]pyridin-5-yl)phenyl)-3-oxopiperazin-1-yl)-2-oxoethoxy)azetidin-1-yl)-2-(2,6-dioxopiperidin-3-yl)isoindoline-1,3-dione] |
| 10 to 100 nM | O=C1CCC(N2C(=O)c3ccc(CCN4CCC(OC(=O)N5CCN(c6cccc(-c7cnc8[nH]cc(C9CC9)c8c7Cl)c6)C(=O)C5)CC4)cc3C2=O)C(=O)N1 (stereo not shown) [Example 98, 1-(2-(2-(2,6-dioxopiperidin-3-yl)-1,3-dioxoisoindolin-5-yl)ethyl)piperidin-4-yl 4-(3-(4-chloro-3-cyclopropyl-1H-pyrrolo[2,3-b]pyridin-5-yl)phenyl)-3-oxopiperazine-1-carboxylate] |
| 10 to 100 nM | CCc1c[nH]c2ncc(-c3cccc(N4CCN(C(=O)CCCOc5ccc6c(c5)C(=O)N(C5CCC(=O)NC5=O)C6)CC4=O)c3)c(Cl)c12 (stereo not shown) [Example 67] |
